Results as given in patent US6399634B1, “Benzothiophene compounds, compositions, and methods” (Eli Lilly and Company, priority 1994, dated 2002).
“And” between values parts separate entries of the source, which are not always exact repeats. Equal entries are not always repeated. Structures can show the parent of a compound that is named as a salt.

What was measured:
[1] = test system: Uterine Eosinophil Peroxidase (EPO); assay: Uterine Eosinophil Peroxidase (EPO) Assay on uteri of dosed OVX rats; type: in vivo, Sprague Dawley rats; design: unit not given here
Description: (§1) Seventy-five day old female Sprague Dawley rats (weight range of 200 to 225 g) were obtained from Charles River Laboratories (Portage, Mich.). The animals were either bilaterally ovariectomized (OVX) or exposed to a Sham surgical procedure at Charles River Laboratories, and then shipped after one week. Upon arrival, they were housed in metal hanging cages in groups of 3 or 4 per cage and had ad libitum access to food (calcium content approximately 0.5%) and water for one week. Room temperature was maintained at 22.2°±1.7° C. with a minimum relative humidity of 40%. The photoperiod in the room was 12 hours light and 12 hours dark.
(§2) Dosing Regimen Tissue Collection. After a one week acclimation period (therefore, two weeks post-OVX) daily dosing with test compound was initiated. 17α-ethynyl estradiol or the test compound were given orally, unless otherwise stated, as a suspension in 1% carboxymethylcellulose or dissolved in 20% cyclodextrin. Animals were dosed daily for 4 days. Following the dosing regimen, animals were weighed and anesthetized with a ketamine: Xylazine (2:1, V:V) mixture and a blood sample was collected by cardiac puncture. The animals were then sacrificed by asphyxiation with CO2, the uterus was removed through a midline incision, and a wet uterine weight was determined.
Uterine Eosinophil Peroxidase (EPO) Assay. Uteri were kept at 4° C. until time of enzymatic analysis. The uteri were then homogenized in 50 volumes of 50 mM Tris buffer (pH−8.0) containing 0.005% Triton X-100. Upon addition of 0.01% hydrogen peroxide and 10 mM o-phenylenediamine (final concentrations) in Tris buffer, increase in absorbance was monitored for one minute at 450 nm. The presence of eosonophils in the uterus is an indication of estrogenic activity of a compound. The maximal velocity of a 15 second interval was determined over the initial, linear portion of the reaction curve.

[2] = test system: ovariectomized (OVX) rats; assay: Uterine wet weight in ovariectomized rat post-menopausal model, 4 days of dosing; type: in vivo, Sprague Dawley rats; conditions: oral; for Uterine Weight (% increase vs. OVX): daily for 4 days
Description: In the examples illustrating the methods, a post-menopausal model was used in which effects of different treatments upon circulating lipids were determined.
as §1, §2

[3] = test system: ovariectomized (OVX) rats; assay: Serum cholesterol analysis in ovariectomized rats, 4 days of dosing; type: in vivo, Sprague Dawley rats; conditions: oral; for Serum Cholesterol (% decrease vs. OVX): daily for 4 days
Description: as §1, §2
Cholesterol Analysis. Blood samples were allowed to clot at room temperature for 2 hours, and serum was obtained following centrifugation for 10 minutes at 3000 rpm. Serum cholesterol was determined using a Boehringer Mannheim Diagnostics high performance cholesterol assay. Briefly the cholesterol was oxidized to cholest-4-en-3-one and hydrogen peroxide. The hydrogen peroxide was then reacted with phenol and 4-aminophenazone in the presence of peroxidase to produce a p-quinone imine dye, which was read spectrophotemetrically at 500 nm. Cholesterol concentration was then calculated against a standard curve. The entire assay was automated using a Biomek Automated Workstation.

[4] = test system: ovariectomized (OVX) rats; assay: Osteoporosis Test Procedure: femur bone density in OVX rats after 35 days of dosing; type: in vivo, Sprague Dawley rats; conditions: for Bone Density: mean ± SEM
Description: Seventy-five day old female Sprague Dawley rats (weight range of 200 to 225 g) were obtained from Charles River Laboratories (Portage, Mich.). The animals were either bilaterally ovariectomized (OVX) or exposed to a Sham surgical procedure at Charles River Laboratories, and then shipped after one week. Upon arrival, they were housed in metal hanging cages in groups of 3 or 4 per cage and had ad libitum access to food (calcium content approximately 0.5%) and water for one week. Room temperature was maintained at 22.2°±1.7° C. with a minimum relative humidity of 40%. The photoperiod in the room was 12 hours light and 12 hours dark. Following the General Preparation Procedure, infra, the rats were treated daily for 35 days (6 rats per treatment group) and sacrificed by decapitation on the 36th day. The 35 day time period was sufficient to allow maximal reduction in bone density, measured as described herein. At the time of sacrifice, the uteri were removed, dissected free of extraneous tissue, and the fluid contents were expelled before determination of wet weight in order to confirm estrogen deficiency associated with complete ovariectomy. […] The uteri were then placed in 10% neutral buffered formalin to allow for subsequent histological analysis. The right femurs were excised and scanned at the distal metaphysis 1 mm from the patellar groove with single photon absorptiometry. Results of the densitometer measurements represent a calculation of bone density as a function of the bone mineral content and bone width. In accordance with the above procedures, compounds of the present invention and ethynyl estradiol (EE2) in 20% hydroxypropyl β-cyclodextrin were orally administered to test animals. Data presented in Tables 5 and 6 below are the results of these treatments compared to intact and ovariectomized test animals. Results are reported as the mean±the standard error of the mean.

[5] = test system: MCF-7 breast adenocarcinoma cells; assay: MCF-7 Proliferation Assay (tritiated thymidine); type: cell-based; conditions: Homo sapiens, MCF7; MCF-7 cells, 48 hours with drug, tritiated thymidine pulse 4 hours
Description: MCF-7 breast adenocarcinoma cells (ATCC HTB 22) were maintained in MEM (minimal essential medium, phenol red-free, Sigma, St. Louis, Mo.) supplimented with 10% fetal bovine serum (FBS) (V/V), L-glutamine (2 mM), sodium pyruvate (1 mM), HEPES {(N-[2-hydroxyethyl]piperazine-N′-[2-ethanesulfonic acid]10 mM}, non-essential amino acids and bovine insulin (1 ug/mL) (maintenance medium). Ten days prior to assay, MCF-7 cells were switched to maintenance medium supplemented with 10% dextrancoated charcoal stripped fetal bovine serum (DCC-FBS) assay medium) in place of 10% FBS to deplete internal stores of steroids. MCF-7 cells were removed from maintenance flasks using cell dissociation medium (Ca++/Mg++ free HBSS (phenol red-free) supplemented with 10 mM HEPES and 2 mM EDTA). Cells were washed twice with assay medium and adjusted to 80,000 cells/mL. Approximately 100 μL (8,000 cells) were added to flat-bottom microculture wells (Costar 3596) and incubated at 37° C. in a 5% CO2 humidified incubator for 48 hours to allow for cell adherence and equilibration after transfer. Serial dilutions of drugs or DMSO as a diluent control were prepared in assay medium and 50 μL transferred to triplicate microcultures followed by 50 μL assay medium for a final volume of 200 μL. After an additional 48 hours at 37° C. in a 5% CO2 humidified incubator, microcultures were pulsed with tritiated thymidine (1 uCi/well) for 4 hours. Cultures were terminated by freezing at −70° C. for 24 hours followed by thawing and harvesting of microcultures using a Skatron Semiautomatic Cell Harvester. Samples were counted by liquid scintillation using a Wallac BetaPlace β counter. Results in Table 7 below show the IC50 for certain compounds of the present invention.

[6] = female, Sprague Dawley, rat, in vivo, po, 0.1 mg/kg, 4 days
[7] = female, Sprague Dawley, rat, in vivo, po, 1 mg/kg, 4 days
[8] = female, Sprague Dawley, rat, in vivo, po, 10 mg/kg, 4 days
[9] = Table 5, oral, 0.01 mg/kg, OVX control 26.18, intact control 70.22, * P <= 0.05
[10] = Table 5, oral, 0.1 mg/kg, OVX control 26.18, intact control 70.22, * P <= 0.05

Row | Uterine EPO (V. max) [1, 6] | Uterine EPO (V. max) [1, 7] | Uterine EPO (V. max) [1, 8] | Uterine Weight (% increase vs. OVX) ([2]; dose 0.1 mg/kg) | Uterine Weight (% increase vs. OVX) ([2]; dose 1.0 mg/kg) | Uterine Weight (% increase vs. OVX) ([2]; dose 10.0 mg/kg) | IC50 [5] | SMILES | Serum Cholesterol (% decrease vs. OVX) ([3]; dose 0.1 mg/kg) | Serum Cholesterol (% decrease vs. OVX) ([3]; dose 1.0 mg/kg) | Serum Cholesterol (% decrease vs. OVX) ([3]; dose 10.0 mg/kg) | also measured
1 | – | – | – | – | – | – | 1 nM | C[C@]12CC[C@@H]3c4ccc(O)cc4CC[C@H]3[C@@H]1CCC2=O [Estrone, reference compound] | – | – | – | –
2 | 7.3 | 4.8 | 5.5 | 4.0% | 23.1% | 5.2% | – | Oc1ccc(-c2sc3cc(O)ccc3c2Cc2ccc(OCCN3CCCCC3)cc2)cc1 [(k)-Ex11, [6-Hydroxy-2-(4-Hydroxyphenyl)Benzo[B]Thien-3-Yl][4-[2-(1-Piperidinyl)Ethoxy]Phenyl]Methane Hydrochloride] | 43.7% | 63.0% | 60.7% | –
3 | 1.8 | 3.5 | 2.8 | −16.6% | −18.4% | −19.5% | 1000 nM | CCCCS(=O)(=O)Oc1ccc(-c2sc3cc(OS(=O)(=O)CCCC)ccc3c2Cc2ccc(OCCN3CCCCC3)cc2)cc1 [(r)-Ex18, [6-{n-Butylsulfonoyloxy}-2-(4-{n-Butylsulfonoyloxy}Phenyl)Benzo[B]Thien-3-Yl][4-[2-(1-Piperidinyl)Ethoxy]Phenyl]Methane Hydrochloride] | 65.4% | 67.0% | 67.9% | –
4 | 7.4 | 4.7 | 14.5 | 52.2% | 39.1% | 45.6% | – | Oc1ccc(-c2sc3cc(O)ccc3c2C(O)c2ccc(OCCN3CCCCC3)cc2)cc1 (centres unmarked) [(b)-Ex2, [6-Hydroxy-2-(4-Hydroxyphenyl)Benzo[B]Thien-3-Yl][4-[2-(1-Piperidinyl)Ethoxy]Phenyl]Methanol] | 22.2% | 43.5% | 61.6% | –

More lines, now with the values behind:

Row | SMILES | Uterine EPO (V. max) [1, 6] | Uterine EPO (V. max) [1, 7] | Uterine EPO (V. max) [1, 8] | Uterine Weight (% increase vs. OVX) ([2]; dose 0.1 mg/kg) | Uterine Weight (% increase vs. OVX) ([2]; dose 1.0 mg/kg) | Uterine Weight (% increase vs. OVX) ([2]; dose 10.0 mg/kg) | IC50 [5] | Serum Cholesterol (% decrease vs. OVX) ([3]; dose 0.1 mg/kg) | Serum Cholesterol (% decrease vs. OVX) ([3]; dose 1.0 mg/kg) | Serum Cholesterol (% decrease vs. OVX) ([3]; dose 10.0 mg/kg) | also measured
5 | COc1ccc(-c2sc3cc(OC)ccc3c2Cc2ccc(OCCN3CCCCC3)cc2)cc1 [(p)-Ex16, [6-Methoxy-2-(4-Methoxyphenyl)Benzo[B]Thien-3-Yl][4-[2-(1-Piperidinyl)Ethoxy]Phenyl]Methane Hydrochloride] | 5.8 | 5.4 | 6.2 | −13.5% | −13.7% | −24.6% | 50 nM | 26.8% | 59.4% | 72.3% | Bone Density [4, 9]: 26.78 ± 4.98 mg/cm/cm; Bone Density [4, 10]: 43.30 ± 7.86 mg/cm/cm; Bone Density ([4]; Table 5, oral, 1.0 mg/kg, OVX control 26.18, intact control 70.22, * P <= 0.05): 33.62 ± 5.87 mg/cm/cm
6 | C#C[C@]1(O)CC[C@H]2[C@@H]3CCc4cc(O)ccc4[C@H]3CC[C@@]21C [EE2, 17α-ethynyl estradiol, reference compound] | – | – | – | 111.5% and 178.3% | – | – | – | 89.5% and 91.8% | – | – | Uterine EPO (V. max) ([1]; OVX rats, oral, daily for 4 days, dose 0.1 mg/kg): 246.0 and 173.3; Effect on uterine weight compared to ovariectomized test animals (in words) ([2]; EE2 at 0.1 mg/Kg/day): substantially greater than the uterine weight of ovariectomized test animals; Effect on serum cholesterol compared to ovariectomized control animals (in words) ([3]; EE2 at 0.1 mg/Kg/day): decrease in serum cholesterol; Bone Density ([4]; Table 5, oral, 100 μg/kg, OVX control 26.18, intact control 70.22, * P <= 0.05): 47.94 ± 3.71 mg/cm/cm; Bone Density ([4]; Table 6, oral, 100 μg/kg, OVX control 32.46, intact control 81.27, * P <= 0.05): 47.31 ± 6.42 mg/cm/cm; Prevention of femur bone loss caused by ovariectomy (in words) ([4]; oral): prevented this loss
7 | CC(C)(C)C(=O)Oc1ccc(-c2sc3cc(OC(=O)C(C)(C)C)ccc3c2Cc2ccc(OCCN3CCCCC3)cc2)cc1 [(q)-Ex17, [6-{1,1,1-Trimethylacetyloxy}-2-(4-{1,1,1-Trimethylacetyloxy}Phenyl)Benzo[B]Thien-3-Yl][4-[2-(1-Piperidinyl)Ethoxy]Phenyl]Methane Hydrochloride] | 3.1 | 3.0 | 2.8 | −22.7% | −32.4% | −25.2% | 0.01 nM | 55.8% | 56.8% | 58.8% | Bone Density [4, 9]: 17.63 ± 2.94 mg/cm/cm; Bone Density [4, 10]: 24.77 ± 4.65 mg/cm/cm; Bone Density ([4]; Table 6, oral, 0.01 mg/kg, OVX control 32.46, intact control 81.27, * P <= 0.05): 36.44 ± 44 mg/cm/cm; Bone Density ([4]; Table 6, oral, 1.0 mg/kg, OVX control 32.46, intact control 81.27, * P <= 0.05): 36.07 ± 4.20 mg/cm/cm
8 | O=C(Oc1ccc(-c2sc3cc(OC(=O)c4ccccc4)ccc3c2Cc2ccc(OCCN3CCCCC3)cc2)cc1)c1ccccc1 [(s)-Ex21, [6-Benzoyloxy-2-(4-Benzoyloxyphenyl)Benzo[B]Thien-3-Yl][4-[2-{1-Piperidinyl}Ethoxy]Phenyl]Methane] | 1.8 | 2.6 | 2.3 | −19.6% | −28.7% | −26.6% | 0.01 nM | 66.2% | 63.4% | 64.4% | –
